pIC50: −log10 of the molar value. Read-outs that look alike come from different tables or passages of the source.
Experiments:
[1] = test system: LNCaP; experiment: ATP-dependent proliferation/viability assay (Cell Titer Glo), 3 days; details: LNCaP
Experimental: (§1) The experiment was performed to test and to define the antitumor activity in vitro of cortexolone 17α-benzoate on LNCaP (AR+) and PC3 (AR^−), representative of Prostatic cancer cell lines with Androgen Receptor (AR) positive or negative expression, respectively. The experimental method consisted of: • 1. […] After 24 hours, 10 nM DHT (dihydrotestosterone) with or without anti-androgen compounds, or DMSO vehicle (negative control) was added to the cultures. • 3.
as §1, with “define” for “define the”, “17α-valerate-21-propionate (CB-03-10)” for “17α-benzoate”, “AR” for “Androgen Receptor (AR)”

[2] = test system: PC3; experiment: as above; details: PC3
Experimental: as §1
as §1, with “define” for “define the”, “17α-valerate-21-propionate (CB-03-10)” for “17α-benzoate”, “AR” for “Androgen Receptor (AR)”

[3] = test system: resting PBMC; experiment: IC50 on resting PBMC (quiescent, non-dividing cells); type: cell-based, human
Experimental: The ratio from IC50 of the compounds on peripheral blood mononuclear cells (PBMC) and the IC50 on cancer cell lines constitute the Therapeutic Index and show what is the safer compound to be tested.
(§2) The IC^50 in PBMC were tested in 2 different activation status:
resting—quiescent, non-dividing cells
(§3) IC50 of the compounds was determined on fresh cells isolated from human blood (PBMC). The compounds toxicity was determined as follow: Therapeutic Index=Safety/Potency=IC50 stimulated PBMC_/IC50 cancer cell

[4] = test system: HT29; experiment: MTT colorimetric assay, 72 h; type: cell-based; details: for Inhibition (%) on HT29: 72 h, MTT; for Therapeutic Index (TI), Resting PBMC: IC50 resting PBMC / IC50 HT29; for Therapeutic Index (TI), Stimulated PBMC: IC50 stimulated PBMC / IC50 HT29
Experimental: The experiment was performed to test and define anticancer activity in vitro of Cortexolone 17α-benzoate and cortexolone 17α-valerate-21-propionate on cell lines representatives of epithelial intestinal tumors, namely HT29. The experiment method consisted in: • 1. Monolayer HT-29 cells were plated in: 96-wells plates at the density of 2×10^4 cells/mL. The cells plated were kept at 37° C. in 5% CO2 and left to attach for 24 h. • 2. […] After 72 h of treatment, the MTT colorimetric assay was performed.

[5] = test system: MCF7; experiment: In vitro proliferation / cytotoxic assay on breast cancer cells (cell titer glo); details: MCF7
Experimental: For the cytotoxic assay: cells seeded in 96 well flat bottom culture plates in media containing charcoal stripped serum. After 24 hours test compounds were added to the cells. DMSO was used as the vehicle negative control and RU486 as the positive control. After 72 hours incubation cell were harvested, lysed and viability determined using the cell titer glow assay for viability.

[6] = test system: MiaPaca-2 pancreatic tumor xenograft; experiment: Human pancreatic tumor xenograft in nude mice, subcutaneous treatment; type: in vivo
Experimental: The test was carried out comparing the anti-tumor activity of cortexolone 17α-benzoate at two different dosages (8.0 mg/kg, corresponding approximately at 230 μM, and 40 mg/kg, corresponding approximately at 1150 μM), versus the vehicle (i.e. 0.4% (v/v) tween 80 and 0.5% (w/v) carboxymethylcellulose in normal saline) and versus the comparator Cyproterone Acetate at two different dosages (7.4 mg/kg and 37 mg/kg).
1×10^6 MiaPaca-2 cells suspended in matrigel were subcutaneously injected into 6 week old athymic nude mice.
The treatment with the tested compounds, with the vehicle and with the comparative compound, was initiated after the tumor volume has reached 50 mm3 after transplantation. All compounds were injected 100 μL/mouse subcutaneously of low dose solution (approximately 230 μM) or 100 μL/mouse of high dose solution (approximately 1150 μM) of cortexolone 17α-benzoate, vehicle and cyproterone acetate, respectively. Compounds and controls were administered subcutaneously daily for 28 days.
Tumors were measured every 4 days with a digital caliper.
The results are plotted in FIG. 1 as average change in tumor volume relative to the start of treatment. Tumor volume was calculated according to the formula 0.5236(r1)^2(r2) where r1<r2.
The test was carried out comparing the anti-tumor activity of cortexolone 17α-valerate-21-propionate (CB-03-10) at two different dosages (approximately 8.6 mg/kg and 43 mg/kg) versus the vehicle (i.e. 0.4% (v/v) tween 80 and 0.5% (w/v) carboxymethylcellulose in normal saline) and versus the comparator Cyproterone Acetate at two different dosages (7.4 mg/kg and 37 mg/kg).
The treatment with the tested compound, with the vehicle and with the comparative compound was initiated after the tumor has reached a volume of 50 mm3 after implantation, injecting subcutaneously 100 μL/mouse of low dose solution (approximately 230 μM) or 100 μL/mouse of high dose solution (approximately 1150 μM) of cortexolone 17α-valerate-21-propionate (CB-03-10), vehicle and cyproterone acetate, respectively. Compounds and controls were administered subcutaneously daily for 28 days.
The results are plotted in FIG. 2 as average change in tumor volume relative to the start of treatment. Tumor volume was calculated according to the formula 0.5236(r1)^2(r2) where r1<r2.
CPA a well-known anti-androgen was used as control. Briefly 1×10^6 MiaPaca2 cells suspended in matrigel were subcutaneously (SC) injected into 6 week old male athymic nude mice. Tumors were measured every 4 days with a digital caliper. Tumor volume was calculated according to the formula: 0.5236(r1)2(r2) where r1<r2. Treatment with CB-03-10 and controls compounds was initiated after the tumor had reached 50 mm3. Compounds diluted in DMSO/2-hydroxypropyl b-cyclodextrin (vehicle) were injected subcutaneously (SC) daily (100 μL/mouse) at the concentration of 40 mg/Kg daily for 28 consecutive days.

[7] = test system: stimulated PBMC; experiment: IC50 on stimulated PBMC (actively dividing cells)
Experimental: as §2
stimulated—actively dividing cells
as §3

[8] = test system: BxPC3; experiment: In vitro proliferation, larger cancer cell line panel
[9] = test system: HT29; experiment: as above; details: HT29
[10] = test system: Panc1; experiment: ATP-dependent proliferation/viability assay (Cell Titer Glo), 3 days; details: for TI on Resting PBMC: IC50 resting PBMC / IC50 Panc1; for TI on Stimulated PBMC: IC50 stimulated PBMC / IC50 Panc1
[11] = test system: MiaPaca2; experiment: as above; details: for TI on Resting PBMC: IC50 resting PBMC / IC50 MiaPaca2; for TI on Stimulated PBMC: IC50 stimulated PBMC / IC50 MiaPaca2
[12] = Experiment 1, 0 = higher toxicity in PBMC

`C[C@]12CCC(=O)C=C1CC[C@@H]1[C@@H]2CC[C@@]2(C)[C@H]1CC[C@]2(OC(=O)c1ccccc1)C(=O)CO` [CB-03-06, cortexolone 17α-benzoate] was tested, and the “Therapeutic Index = IC50 resting PBMC/IC50 cancer cell” value ([1]; Table IV) was 8, the “Therapeutic Index = IC50 stimulated PBMC/IC50 cancer cell” value ([1]; Table VII) was 8 and the “Therapeutic Index = IC50 resting PBMC/IC50 cancer cell” value ([2]; Table IV) was 3. The “Therapeutic Index = IC50 stimulated PBMC/IC50 cancer cell” value ([2]; Table VII) was 3, the pIC50 ([3]; Example 7 Experiment 1) was 4.00 and the pIC50 ([3]; Example 7 Experiment 2) was 4.07. For the same compound, the “Inhibition (%) on HT29” value ([4]; 0.8 micromolar) was −1.55%, the “Inhibition (%) on HT29” value ([4]; 4 micromolar) was 20.40% and the “Inhibition (%) on HT29” value ([4]; 20 micromolar) was 53.60%. The “Inhibition (%) on HT29” value ([4]; 100 micromolar) was 92.24%, the “Inhibition (%) on HT29” value ([4]; 500 micromolar) was 92.31% and the “Therapeutic Index (TI), Resting PBMC” value ([4]; Example 9 Experiment 1) was 6. For the same compound, the “Therapeutic Index (TI), Resting PBMC” value ([4]; Example 9 Experiment 2) was 5, the “Therapeutic Index (TI), Stimulated PBMC” value ([4]; Example 9 Experiment 1) was 7 and the “Therapeutic Index (TI), Stimulated PBMC” value ([4]; Example 9 Experiment 2) was 6. For the same compound, the “Therapeutic Index = IC50 resting PBMC/IC50 cancer cell” value ([5]; Table IV) was 4, the “Therapeutic Index = IC50 stimulated PBMC/IC50 cancer cell” value ([5]; Table VII) was 4 and the “pancreatic tumor size increase relative to size when treatment was initiated” value ([6]; Example 5, high dose 40 mg/kg (approximately 1150 μM, 100 μL/mouse) SC daily 28 days) was “less than 5 fold”. For the same compound, the “in vivo antitumor activity compared with Cyproterone Acetate” value ([6]; Examples 5 and 6, FIG. 3, same animal model) was “antitumor activity higher than Cyproterone Acetate”, the “Therapeutic Index = IC50 resting PBMC/IC50 cancer cell” value ([7]; PBMC Stim, healthy lymphocyte, Table IV) was 1 and the “Therapeutic Index = IC50 stimulated PBMC/IC50 cancer cell, AVERAGE” value ([7]; average across the 7 cancer cell lines, Table VII) was 5. For the same compound, the pIC50 ([7]; read-out: IC50 on Stimulated PBMC, Example 7 Experiment 1) was 3.95, the pIC50 ([7]; read-out: IC50 on Stimulated PBMC, Example 7 Experiment 2) was 4.01 and the pIC50 ([7]; read-out: In vitro proliferation IC50, PBMC STIMULATED, healthy lymphocyte, Table IV) was 4.01. The “Therapeutic Index = IC50 resting PBMC/IC50 cancer cell” value ([8]; Table IV) was 3, the “Therapeutic Index = IC50 stimulated PBMC/IC50 cancer cell” value ([8]; Table VII) was 3 and the “Therapeutic Index = IC50 resting PBMC/IC50 cancer cell” value ([9]; Table IV) was 6. For the same compound, the “Therapeutic Index = IC50 stimulated PBMC/IC50 cancer cell” value ([9]; Table VII) was 6, the pIC50 ([9]; read-out: In vitro proliferation IC50, Table IV) was 5.00 and the “TI on Resting PBMC” value [10, 12] was 4. The “TI on Resting PBMC” value ([10]; Experiment 2) was 3, the “TI on Stimulated PBMC” value ([10]; Experiment 1, 0 = higher toxicity in PBMC than in the cancer cell lines) was 5 and the “TI on Stimulated PBMC” value ([10]; Experiment 2) was 3. The “Therapeutic Index = IC50 resting PBMC/IC50 cancer cell” value ([10]; Panc1, Table IV) was 3, the “Therapeutic Index = IC50 stimulated PBMC/IC50 cancer cell” value ([10]; Panc1, Table VII) was 3 and the “TI on Resting PBMC” value [11, 12] was 6. The “TI on Resting PBMC” value ([11]; Experiment 2) was 4, the “TI on Stimulated PBMC” value [11, 12] was 7 and the “TI on Stimulated PBMC” value ([11]; Experiment 2) was 5. The “Therapeutic Index = IC50 resting PBMC/IC50 cancer cell” value ([11]; MiaPaca2, Table IV) was 5 and the “Therapeutic Index = IC50 stimulated PBMC/IC50 cancer cell” value ([11]; MiaPaca2, Table VII) was 5.

Source: patent US11712443B2, “17α-monoesters and 17α,21-diesters of cortexolone for use in the treatment of tumors” (COSMO TECHNOLOGIES LTD., priority 2014, dated 2023)
